Patent publication US20250312299A1, “COMPOSITION COMPRISING THIOUREA DERIVATIVE FOR PREVENTION OR TREATMENT OF FIBROTIC DISEASE” (THERASID BIOSCIENCE INC., priority 2022, published 2025)

Legend:
Assay type in all cases: cell-based
collagen type 1 (COL1A1) [1] = assay: RT-qPCR gene expression of COL1A1 in TGF-β treated HK-2 cells; conditions: TGF-β 10 ng/ml + compound 20 μM, 24 hours, FIG. 8
Experimental: (§1) In order to confirm the inhibitory effect of the compound of the present invention on the gene expression of fibrosis-related markers, the gene expression of collagen type 1 (type 1 collagen; COL1A1) and fibronectin, which are fibrosis-related markers, was confirmed through RT-qPCR analysis. As a control group, TGF-β (transforming growth factor-β) was used. TGF-β is known to promote the production of extracellular matrix such as collagen and promote fibrosis of tissues.
(§2) HK-2 cells were seeded at 2×10^5 per well in a 6 well plate, cultured for 24 hours in a 37° C., 5% CO2 incubator, and then treated with TGF-β at a concentration of 10 ng/ml and the compound of the present invention (TB-840) at a concentration of 20 μM, and cultured for 24 hours. After culturing for 24 hours, the cells were washed twice with phosphate buffered saline (PBS), and then RNA extraction was performed using a RNA-spin™ total RNA extraction kit (iNtRON Biotechnology, Cat no. 17211) protocol. Thereafter, the RNA concentration was measured using a Nanodrop device, and cDNA was synthesized using a Maxime™ RT PreMix (iNtRON Biotechnology, Cat no. 25081) and a MiniAmp™ Termal Cycler device. Thereafter, the gene expression levels of COL1A1 and fibronectin were measured using a QuantStudio 5 Real-Time PCR device.

collagen type 1 (COL1A1) [2] = assay: Western blot protein expression of COL1A1 in TGF-β treated LX2 cells; conditions: TGF-β 10 ng/ml + compound 20 μM, 48 hours, FIGS. 10 to 12
Text: (§3) In order to confirm the inhibitory effect of the compound of the present invention on the protein expression of fibrosis-related markers, the protein expression of collagen type 1 (type 1 collagen; COL1A1) and fibronectin, which are fibrosis-related markers, and HSP60 was confirmed through Western blot analysis. As a control group, TGF-β (transforming growth factor-β) was used. TGF-β is known to promote the production of extracellular matrix such as collagen and promote fibrosis of tissues.
(§4) LX2 cells were seeded at 7.6×10^5 per dish in a 60 φ dish, cultured for 24 hours in a 37° C., 5% CO2 incubator, and then treated with TGF-β at a concentration of 10 ng/ml and the compound of the present invention (TB-840) at a concentration of 20 μM, and cultured for 48 hours. After collecting the cultured cells, the cell pellet was spun down using a centrifuge (13,000 rpm, 5 min, 4° C.) and then lysed by adding lysis buffer with vortexing for 1 hour at 10-minute intervals, and then cell membrane components, etc. were removed using a centrifuge (13,000 rpm, 20 min, 4° C.). The sample was prepared by measuring according to the protocol using a BCA protein assay kit. […] Thereafter, the primary antibody was reacted overnight, and then the secondary antibody was bound, and the protein expression of COL1A1 and fibronectin was measured using an Azure biosystems (C300) device.

HSP60 [3] = assay: Western blot protein expression of HSP60 in TGF-β treated HK-2 cells; conditions: TGF-β 10 ng/ml + compound 20 μM, 48 hours, FIGS. 16 to 18
Text: as §3
as §4, with “HK-2” for “LX2”, “1×10^6” for “7.6×10^5”

fibronectin [4] = assay: RT-qPCR gene expression of fibronectin in TGF-β treated HK-2 cells; conditions: TGF-β 10 ng/ml + compound 20 μM, 24 hours, FIG. 9
Experimental: as §1, §2

collagen type 1 (COL1A1) [5] = assay: Western blot protein expression of COL1A1 in TGF-β treated A549 cells; conditions: TGF-β 10 ng/ml + compound 20 μM, 24 hours, FIGS. 13 to 15
Text: as §3
as §4, with “A549” for “LX2”, “2.5×10^5” for “7.6×10^5”, “well” for “dish”, “6 well plate,” for “60 φ dish,”, “24” for “48”

fibronectin [6] = assay: Western blot protein expression of fibronectin in TGF-β treated LX2 cells; conditions: TGF-β 10 ng/ml + compound 20 μM, 48 hours, FIGS. 10 to 12
Text: as §3, §4

collagen type 1 (COL1A1) [7] = assay: Western blot protein expression of COL1A1 in TGF-β treated HK-2 cells; conditions: TGF-β 10 ng/ml + compound 20 μM, 48 hours, FIGS. 16 to 18
Text: as §3
as §4, with “HK-2” for “LX2”, “1×10^6” for “7.6×10^5”

fibronectin [8] = assay: Western blot protein expression of fibronectin in TGF-β treated HK-2 cells; conditions: TGF-β 10 ng/ml + compound 20 μM, 48 hours, FIGS. 16 to 18
Text: as §3
as §4, with “HK-2” for “LX2”, “1×10^6” for “7.6×10^5”

A549 cells = assay: CCK-8 cell viability assay, lung cell line (A549); conditions: A549 lung carcinoma cells, 20 μM, 24 hours, CCK-8, FIG. 2
Experimental: (§5) A549 cells, which are lung cells (lung carcinoma cells), were seeded at 1.5×10^4 per well in a 96 well plate, cultured for 24 hours in a 37° C., 5% CO2 incubator, and then treated with the compound of the present invention (TB-840) at a concentration of 20 μM for 24 hours. After culturing for 24 hours, the cells were treated with 10 μl of CCK-8 solution for 2 hours.

fibronectin [9] = assay: Western blot protein expression of fibronectin in TGF-β treated A549 cells; conditions: TGF-β 10 ng/ml + compound 20 μM, 24 hours, FIGS. 13 to 15
Text: as §3
as §4, with “A549” for “LX2”, “2.5×10^5” for “7.6×10^5”, “well” for “dish”, “6 well plate,” for “60 φ dish,”, “24” for “48”

fibronectin [10] = assay: RT-qPCR gene expression of fibronectin in TGF-β treated A549 cells; conditions: TGF-β 10 ng/ml + compound 20 μM, 24 hours, FIG. 7
Experimental: as §1
as §2, with “A549” for “HK-2”, “2.5×10^5” for “2×10^5”

collagen type 1 (COL1A1) [11] = assay: RT-qPCR gene expression of COL1A1 in TGF-β treated LX2 cells; conditions: TGF-β 10 ng/ml + compound 20 μM, 24 hours, FIG. 4
Experimental: as §1
as §2, with “LX2” for “HK-2”, “3.5×10^5” for “2×10^5”

collagen type 1 (COL1A1) [12] = assay: RT-qPCR gene expression of COL1A1 in TGF-β treated A549 cells; conditions: TGF-β 10 ng/ml + compound 20 μM, 24 hours, FIG. 6
Experimental: as §1
as §2, with “A549” for “HK-2”, “2.5×10^5” for “2×10^5”

HK-2 cells = assay: CCK-8 cell viability assay, kidney cell line (HK-2); conditions: HK-2 kidney proximal tubular cells, 20 μM, 24 hours, CCK-8, FIG. 3
Experimental: as §5, with “HK-2” for “A549”, “kidney” for “lung”, “(proximal tubular” for “(lung carcinoma”, “1×10^4” for “1.5×10^4”

HSP60 [13] = assay: Western blot protein expression of HSP60 in TGF-β treated LX2 cells; conditions: TGF-β 10 ng/ml + compound 20 μM, 48 hours, FIGS. 10 to 12
Text: as §3, §4

fibronectin [14] = assay: RT-qPCR gene expression of fibronectin in TGF-β treated LX2 cells; conditions: TGF-β 10 ng/ml + compound 20 μM, 24 hours, FIG. 5
Experimental: as §1
as §2, with “LX2” for “HK-2”, “3.5×10^5” for “2×10^5”

LX2 cells = assay: CCK-8 cell viability assay, liver cell line (LX2); conditions: LX2 liver (stellate) cells, 20 μM, 24 hours, CCK-8, FIG. 1
Experimental: as §5, with “LX2” for “A549”, “liver” for “lung”, “(stellate” for “(lung carcinoma”, “1×10^4” for “1.5×10^4”

HSP60 [15] = assay: Western blot protein expression of HSP60 in TGF-β treated A549 cells; conditions: TGF-β 10 ng/ml + compound 20 μM, 24 hours, FIGS. 13 to 15
Text: as §3
as §4, with “A549” for “LX2”, “2.5×10^5” for “7.6×10^5”, “well” for “dish”, “6 well plate,” for “60 φ dish,”, “24” for “48”

How did the “gene expression of COL1A1 compared to the group treated with TGF-β” value (collagen type 1 (COL1A1) [1]) turn out when `CNC(=S)NCc1ccc(OCc2ccccc2)cc1` [TB-840, 1-(4-benzyloxy-benzyl)-3-methyl-thiourea] was run?
Its value is “reduced”.

And the “protein expression of COL1A1 compared to the group treated with TGF-β” value (collagen type 1 (COL1A1) [2])?
Its value is “reduced”.

What about the “protein expression of HSP60” value (HSP60 [3]) of the same molecule?
Its value is “no change”.

What about the “gene expression of fibronectin compared to the group treated with TGF-β” value (fibronectin [4]) of the same molecule?
The value was “reduced”.

What about the “protein expression of COL1A1 compared to the group treated with TGF-β” value (collagen type 1 (COL1A1) [5]) of the same molecule?
The value was “reduced”.

What about the “protein expression of fibronectin compared to the group treated with TGF-β” value (fibronectin [6]) of the same molecule?
The value was “reduced”.

What about the “protein expression of COL1A1 compared to the group treated with TGF-β” value (collagen type 1 (COL1A1) [7]) of the same molecule?
Its value is “reduced”.

And the “protein expression of fibronectin compared to the group treated with TGF-β” value (fibronectin [8])?
Its value is “reduced”.

What about the cell viability (A549 cells) of the same molecule?
The cell viability was roughly 100%.

What about the “protein expression of fibronectin compared to the group treated with TGF-β” value (fibronectin [9]) of the same molecule?
Its value is “reduced”.

And the “gene expression of fibronectin compared to the group treated with TGF-β” value (fibronectin [10])?
The value was “reduced”.

And the “gene expression of COL1A1 compared to the group treated with TGF-β” value (collagen type 1 (COL1A1) [11])?
Its value is “reduced”.

And the “gene expression of COL1A1 compared to the group treated with TGF-β” value (collagen type 1 (COL1A1) [12])?
The value was “reduced”.

What about the cell viability (HK-2 cells) of the same molecule?
The cell viability was roughly 100%.

And the “protein expression of HSP60” value (HSP60 [13])?
Its value is “no change”.

What about the “gene expression of fibronectin compared to the group treated with TGF-β” value (fibronectin [14]) of the same molecule?
The value was “reduced”.

What about the cell viability (LX2 cells) of the same molecule?
Its cell viability is roughly 100%.

What about the “protein expression of HSP60” value (HSP60 [15]) of the same molecule?
The value was “no change”.
